Experimental data taken from ChEMBL document CHEMBL4342426, “Structure-activity relationship of 4-azaindole-2-piperidine derivatives as agents against Trypanosoma cruzi” (Bioorg Med Chem Lett, 2020).

Tests used:
cells = details: Homo sapiens, MRC-5 SV2, 72 h
Description: (§1) Cytotoxicity against human MRC5 SV2 cells assessed as reduction in cell viability incubated for 3 days by fluorimetry

Macrophage = assay: cells; details: Mus musculus, 72 h
Description: (§2) Cytotoxicity against mouse peritoneal Macrophage cells assessed as reduction in cell viability incubated for 3 days by fluorimetry

in vitro [1] = details: human, MRC5 SV2 cells
Description: as §1

in vitro [2] = details: human, MRC5 SV2 cells; remark: listed apart in the source
Description: Selectivity index, ratio of IC50 for human MRC5 SV2 cells to IC50 for Trypanosoma cruzi Tulahuen CL2 amastigotes infected in human MRC5 SV2 cells

in vitro [3] = details: mouse, peritoneal macrophages
Description: as §2

in vitro [4] = details: human, MRC5 SV2 cells; remark: listed apart in the source
Description: Selectivity index, ratio of IC50 for human MRC5 SV2 cells to IC50 for Trypanosoma brucei rhodesiense STIB900 trypomastigotes

Trypanosoma cruzi = assay: microbe, parasite or virus in culture; details: Tulahuen CL2, MRC-5 SV2, 168 h
Description: Antitrypanosomal activity against Trypanosoma cruzi Tulahuen CL2 amastigotes infected in human MRC5 SV2 cells incubated for 7 days by chlorophenol red beta-D-galactopyranoside substrate based spectrophotometric assay

Trypanosoma brucei = assay: microbe, parasite or virus in culture; details: Squib 427, 72 h
Description: Antitrypanosomal activity against Trypanosoma brucei Squib 427 assessed as reduction in parasite growth incubated for 72 hrs by resazurin dye based fluorimetric analysis

[5] = test system: Trypanosoma brucei rhodesiense; assay: microbe, parasite or virus in culture; details: STIB900, 72 h
Description: Antiprotozoal activity against Trypanosoma brucei rhodesiense STIB900 trypomastigotes incubated for 72 hrs by resazurin dye based fluorimetric analysis

Leishmania infantum = assay: microbe, parasite or virus in culture; details: for IC50: MHOM/MA(BE)/67/ITMAP263, 120 h; for IC90: MHOM/MA(BE)/67/ITMAP263, in Mus musculus, 120 h
Description: Antileishmanial activity against amastigote stage of Leishmania infantum MHOM/MA(BE)/67/ITMAP263 infected in mouse peritoneal macrophage assessed as parasite growth inhibition incubated for 5 days by Giemsa staining based assay

in vitro [6] = details: human, liver microsomes
Description: Metabolic stability in human liver microsomes assessed as intrinsic clearance at 0.5 uM incubated for 30 mins by LC-MS/MS analysis

in vitro [7] = details: mouse, liver microsomes
Description: Metabolic stability in mouse liver microsomes assessed as intrinsic clearance at 0.5 uM incubated for 30 mins by LC-MS/MS analysis

physchem = details: buffer, pH 7.4
Description: Lipophilicity, logD of compound at pH 7.4 by HPLC analysis

in vitro [8] = details: PAMPA
Description: Effective permeability of compound by PAMPA assay

in vitro [9] = details: mouse, liver microsomes; remark: listed apart in the source
Description: Metabolic stability in mouse liver microsomes assessed as fraction unbound at 0.5 uM incubated for 30 mins by LC-MS/MS analysis

Compound	IC50 (cells)	IC50 (Macrophage)	IC90 at 72 h (in vitro [1])	selectivity ratio (in vitro [2])	IC90 at 72 h (in vitro [3])	IC50 (Trypanosoma cruzi)	IC90 (Trypanosoma cruzi)	IC50 (Trypanosoma brucei)	IC90 (Trypanosoma brucei)	IC50 [5]	IC90 [5]	IC50 (Leishmania infantum)	IC90 (Leishmania infantum)	CLint scaled at 0.5 h, 0.5 µM (in vitro [6])	microsomal CLint at 0.5 h, 0.5 µM (in vitro [6])	CLint scaled at 0.5 h, 0.5 µM (in vitro [7])	microsomal CLint at 0.5 h, 0.5 µM (in vitro [7])	logD (physchem)	Papp (in vitro [8])	fraction unbound at 0.5 h, 0.5 µM (in vitro [9])	other results
CC(C)c1cc(C(=O)N2CCCC(O)(c3cc4ncccc4n3S(=O)(=O)c3ccccc3)C2)on1 (stereo not drawn)	64 µM	64 µM	64 µM	1.26	64 µM	51.3 µM	64 µM	51.1 µM	64 µM	35.4 µM	64 µM	64 µM	64 µM	–	–	–	–	–	–	–	selectivity ratio (in vitro [4]): 1.8
O=C(c1ccccc1)N1CC=C(c2cc3ncccc3[nH]2)CC1	64 µM	64 µM	64 µM	26.8	64 µM	2.39 µM	12.3 µM	64 µM	64 µM	30.3 µM	64 µM	24.7 µM	46.1 µM	< 33.3 mL/min/kg	< 23 µL/min/mg	1310 mL/min/kg	305 µL/min/mg	2.89	1.65 ×10⁻⁶ cm/s	–	selectivity ratio (in vitro [4]): 2.1
O=C(c1cc(C(F)(F)F)no1)N1CCC(c2cc3ncccc3[nH]2)C1 (stereo not drawn)	64 µM	64 µM	64 µM	7.25	64 µM	8.3 µM	64 µM	64 µM	64 µM	64 µM	64 µM	64 µM	64 µM	95.8 mL/min/kg	58.2 µL/min/mg	5410 mL/min/kg	1110 µL/min/mg	3.12	2.86 ×10⁻⁶ cm/s	0.656	–
O=C(c1ccccc1)N1CCCC(c2cc3ncccc3[nH]2)C1 (stereo not drawn)	64 µM	64 µM	64 µM	7.13 to 7.5	64 µM	8.5 to 9.02 µM	31.1 to 45.3 µM	64 µM	64 µM	38.3 to 64 µM	64 µM	64 µM	64 µM	38.8 mL/min/kg	24.7 µL/min/mg	2360 mL/min/kg	508 µL/min/mg	2.68	2.88 ×10⁻⁶ cm/s	–	selectivity ratio (in vitro [4]): 1.7
O=C(c1cc(C2CC2)no1)N1CCOC(c2cc3ncccc3[nH]2)C1 (stereo not drawn)	64 µM	64 µM	64 µM	1.85	64 µM	34.6 µM	63.5 µM	64 µM	64 µM	64 µM	64 µM	64 µM	64 µM	< 27.8 mL/min/kg	< 23 µL/min/mg	279 mL/min/kg	78.3 µL/min/mg	2.4	3.18 ×10⁻⁶ cm/s	0.896	–
CCN(C(=O)CCc1nc2ncccc2[nH]1)c1ccccc1	64 µM	64 µM	64 µM	1.3	64 µM	49.1 µM	64 µM	64 µM	64 µM	64 µM	64 µM	64 µM	64 µM	49.3 mL/min/kg	35.1 µL/min/mg	426 mL/min/kg	102 µL/min/mg	2.23	9.64 ×10⁻⁶ cm/s	0.767	–
CN(CCc1cc2ncccc2[nH]1)C(=O)c1ccccc1	64 µM	64 µM	64 µM	1.75	64 µM	36.2 µM	64 µM	64 µM	64 µM	64 µM	64 µM	64 µM	64 µM	< 30.2 mL/min/kg	< 23 µL/min/mg	1470 mL/min/kg	382 µL/min/mg	1.88	2.85 ×10⁻⁶ cm/s	0.83	–
O=C(c1ccccc1)N1CCC(c2cc3ncccc3[nH]2)CC1	64 µM	64 µM	64 µM	2.86	64 µM	22.4 µM	56.1 µM	64 µM	64 µM	64 µM	64 µM	64 µM	64 µM	< 33.3 mL/min/kg	< 23 µL/min/mg	4520 mL/min/kg	1040 µL/min/mg	2.68	0.94 ×10⁻⁶ cm/s	0.738	–
CC(C)(O)c1cc(C(=O)N2CCCC(c3cc4ncccc4[nH]3)C2)on1 (stereo not drawn)	64 µM	64 µM	64 µM	1.9	64 µM	33.6 µM	64 µM	64 µM	64 µM	64 µM	64 µM	64 µM	64 µM	< 37.8 mL/min/kg	< 23 µL/min/mg	< 88 mL/min/kg	< 23 µL/min/mg	2.3	0.45 ×10⁻⁶ cm/s	0.661 to 0.839	–
O=C(c1ccc(F)cc1)N1CCCC(c2cc3ncccc3[nH]2)C1 (stereo not drawn)	64 µM	64 µM	64 µM	6.38	64 µM	10 µM	44.1 µM	64 µM	64 µM	32.8 µM	60.7 µM	64 µM	64 µM	41.3 mL/min/kg	38.3 µL/min/mg	1080 mL/min/kg	337 µL/min/mg	2.86	0.625 ×10⁻⁶ cm/s	–	selectivity ratio (in vitro [4]): 1.98
CCN(CCc1nc2ncc(Cl)cc2[nH]1)C(=O)c1ccc(F)cc1	64 µM	64 µM	64 µM	–	64 µM	64 µM	64 µM	64 µM	64 µM	30.3 µM	57.6 µM	64 µM	64 µM	< 31.7 mL/min/kg	< 23 µL/min/mg	439 mL/min/kg	108 µL/min/mg	2.79	11.4 ×10⁻⁶ cm/s	–	selectivity ratio (in vitro [4]): 2.1
COc1cc(C(=O)N2CCCC(c3cc4ncccc4[nH]3)C2)on1 (stereo not drawn)	64 µM	64 µM	64 µM	7.9	64 µM	8.1 µM	15.2 µM	64 µM	64 µM	64 µM	64 µM	64 µM	64 µM	57.8 mL/min/kg	36.9 µL/min/mg	601 mL/min/kg	129 µL/min/mg	2.44	6.36 ×10⁻⁶ cm/s	0.688	–
COc1cccc2[nH]c(C(=O)N3CCCC(c4cc5ncccc5[nH]4)C3)cc12 (stereo not drawn)	32 µM	32 µM	32 µM	29.4	32 µM	1.09 µM	5.34 µM	32 µM	32 µM	5.88 µM	23.4 µM	24.7 µM	32 µM	–	–	–	–	–	–	–	selectivity ratio (in vitro [4]): 5.44
O=C(c1cc(C(F)(F)F)no1)N1CCOC(c2cc3ncccc3[nH]2)C1 (stereo not drawn)	64 µM	64 µM	64 µM	1.8	64 µM	35.7 µM	64 µM	64 µM	64 µM	64 µM	64 µM	64 µM	64 µM	118 mL/min/kg	89.8 µL/min/mg	529 mL/min/kg	137 µL/min/mg	2.89	4.3 ×10⁻⁶ cm/s	0.825	–
COc1ccc(Cl)cc1C(=O)N1CCCC(c2cc3ncccc3[nH]2)C1 (stereo not drawn)	32 µM	32 µM	32 µM	8.54	32 µM	3.75 µM	7.59 µM	32 µM	32 µM	17.8 µM	32 µM	28.5 µM	32 µM	207 mL/min/kg	–	10300 mL/min/kg	–	–	–	–	selectivity ratio (in vitro [4]): 1.79
